Experimental data from patent US20090307791A1, “CALCIUM-ACTIVATED CHLORIDE CHANNEL AND METHODS OF USE THEREOF” (priority 2008, published 2009).

Tests used:
CaCC = assay: Ca2+ evoked current in A23187 treated Xenopus oocytes; type: cell-based; conditions: Ca2+ 5 mM
Protocol: (§1) For experiments involving TMEM16 constructs, capped cRNA was in vitro transcribed from linearized plasmids using the mMessage mMachine kit (Ambion). Female Axolotls and Xenopus laevis were purchased from the Ambystoma Genetic Stock Center and Nasco respectively. Oocytes from these animals were defoliculated by treatment with collagenase prepared as described. Usually 5 ng of cRNA (50 ng for mRNA) was injected into defolliculated oocytes. Oocytes were kept at 17° C. in ND96 solution (96 mM NaCl, 2 mM KCl, 1.8 mM CaCl2, 1 mM MgCl2, 10 mM HEPES [pH 7.4]). Two-electrode voltage-clamp measurements were performed at room temperature 2-4 days after injection using a GeneClamp500 amplifier (Axon Instruments) and pClamp 8.0 software (Axon Instruments). Oocytes used in photolysis experiments were injected with […] of 100 μM caged inositol trisphosphate [myo-inositol 1,4,5-trisphosphate, P4(5)-1-(2-nitrophenyl)ethyl ester] (Molecular Probes) at least 1 h before recording, and kept in dark until usage. For flash photolysis light derived from a mercury arc lamp was guided by a fused silica fiber (Oriel) to the top of oocytes in the recording chamber. Flash time was controlled via electronic shutter.
FIGS. 2A-f. Carbachol and Ca^2+ evoked current responses in different oocytes. […]

endogenous CaCCs = assay: NFA inhibition of IP3-induced Ca2+ activated Cl- currents, two electrode voltage clamp, Xenopus oocytes; type: cell-based, Xenopus laevis
Protocol: as §1
Currents were usually recorded in Ca^2+ free ND96 solution (96 mM NaCl, 2 mM KCl, 3 mM MgCl2, 10 mM HEPES [pH 7.4]). Solutions for Cl^−/gluconate replacement experiments were prepared from appropriate mixtures of solutions containing high Cl^− (95 mM NaCl, 1 mM KCl, 2 mM MgCl2, 10 mM HEPES [pH 7.4]) and solutions containing high gluconate (95 mM NaGluconate, 1 mM KCl, 2 mM MgCl2, 10 mM HEPES [pH 7.4]). In other permeability experiments solutions containing 90 NaX, 2 KCl, 4 MgCl, 10 mM HEPES [pH 7.4] with X=Cl^−, Br^−, I^− or SCN^− were used. […] The permeability ratios were calculated from shifts in reversal potential ΔErev using the Goldman-Hodgkin-Katz Equation in the form: PX/PCl=(γ·[Cl^−](1)−[Cl^−](2))/[X^−](2) were [Cl^−](1), [Cl^−](2) and [X^−](2) are the external Cl^− and X^− concentration before and after solution exchange. […]

xTMEM16A = assay: NFA inhibition of IP3-induced CaCC currents, two electrode voltage clamp, Axolotl oocytes injected with xTMEM16A cRNA; type: cell-based; conditions: Axolotl oocytes expressing xTMEM16A, 30 μM NFA, long lasting current
Protocol: as §1, with “(Molecular Probes) at least 1 h before recording, and kept in dark until usage. For flash photolysis light derived from a mercury arc lamp was guided by a fused silica fiber (Oriel) to the top of oocytes in the recording chamber. Flash time was controlled via electronic shutter.” left out
Currents were usually recorded in Ca^2+ free ND96 solution (96 mM NaCl, 2 mM KCl, 3 mM MgCl2, 10 mM HEPES [pH 7.4]). […] The permeability ratios were calculated from shifts in reversal potential ΔErev using the Goldman-Hodgkin-Katz Equation in the form: PX/PCl=(γ·[Cl^−](1)−[Cl^−](2))/[X^−](2) were [Cl^−](1), [Cl^−](2) and [X^−](2) are the external Cl^− and X^− concentration before and after solution exchange. […]

Structure (SMILES) | CaCC activation by A23187 then high calcium solution (CaCC) | effect on decay of the residual CaCC current (endogenous CaCCs; 30 μM NFA) | effect on IP3-induced CaCC current amplitude (endogenous CaCCs; 30 μM NFA, 1 min perfusion, ND96) | reversibility after removal of NFA (endogenous CaCCs; after 5 min ND96 wash) | effect on amplitude of a CaCC current of long duration (xTMEM16A)
CNc1ccc2oc(C[C@H]3O[C@@]4(CC[C@H]3C)O[C@H]([C@H](C)C(=O)c3ccc[nH]3)[C@H](C)C[C@H]4C)nc2c1C(=O)O [A23187] | resulted in CaCC activation | – | – | – | –
O=C(O)c1cccnc1Nc1cccc(C(F)(F)F)c1 [NFA, niflumic acid] | – | slowed the decay of the residual current | reduced the IP3-induced CaCC current | restored both the amplitude and the kinetics of the CaCC current | barely reduced in amplitude
